Laboratory results from patent publication US11339181B2, “Crystalline forms of a Janus kinase inhibitor” (Japan Tobacco Inc., priority 2016, dated 2022).
In brackets after ≈: the same amount, converted by molar mass.

Test: Solubility test (shaken at 20° C. for 3 hours, filtered, HPLC)
Assay type: physicochemical
Conditions: for Solubility / solubility at 3 h: 20° C., shaken 3 hours; for Solubility rank among Forms α, β, γ: in each solvent measured; for solubility at 3 h: 20 °C, thermodynamic from solid
Method: Each sample (i.e., Forms α, β, and γ of Compound A) was weighed to a 4-mL-volume glass vial. A test solution (3 mL) was added to the vial and the mixture was suspended. About 150 mg of the sample was weighed for the test solution of the 1st fluid for solubility test of The Japanese Pharmacopoeia and about 15 mg was weighed for the test solutions of the 2nd fluid for solubility test of The Japanese Pharmacopoeia and water. Each mixture was shaken with a constant temperature incubator shaker (manufactured by TAITEC) at 20° C. for 3 hours. After being shaken, the supernatant was filtered through a polytetrafluoroethylene disk filter (Millex-LG; manufactured by Millipore) with the 0.2-μm pore size and 4-mm diameter. The measurement was performed by high-performance liquid chromatography (HPLC).

[1] = Solvent: JP 1st fluid for solubility test, pH about 1.2
[2] = Solvent: JP 2nd fluid for solubility test (water / phosphate buffer pH 6.8, 1:1)

Row | Solubility [1] | Solubility [2] | Solubility (Solvent: Water) | Solubility rank among Forms α, β, γ | solubility at 3 h (JP 1st fluid for solubility test, pH 1.2, simulated gastric fluid, Solvent: JP 1st fluid for solubility test, pH about 1.2) | solubility at 3 h (JP 2nd fluid for solubility test, pH 6.8, aqueous buffer, Solvent: JP 2nd fluid for solubility test (water / phosphate buffer pH 6.8, 1:1)) | solubility at 3 h (water, water, Solvent: Water) | Structure (SMILES)
1 | 39100 µg/mL (≈ 126 mM) | 2100 µg/mL (≈ 6.77 mM) | 2000 µg/mL (≈ 6.44 mM) |  |  |  |  | C[C@H]1CN(C(=O)CC#N)[C@]12CCN(c1ncnc3[nH]ccc13)C2 [Form β, 3-((3S,4R)-3-methyl-6-(7H-pyrrolo[2,3-d]pyrimidin-4-yl)-1,6-diazaspiro[3.4]octan-1-γ 1)-3-oxopropanenitrile]
2 | 36400 µg/mL (≈ 117 mM) | 1500 µg/mL (≈ 4.83 mM) | 1500 µg/mL (≈ 4.83 mM) | lowest solubility |  |  |  | C[C@H]1CN(C(=O)CC#N)[C@]12CCN(c1ncnc3[nH]ccc13)C2 [Form γ, 3-((3S,4R)-3-methyl-6-(7H-pyrrolo[2,3-d]pyrimidin-4-yl)-1,6-diazaspiro[3.4]octan-1-γ 1)-3-oxopropanenitrile]
3 |  |  |  | highest solubility | 45000 µg/mL (≈ 145 mM) | 2700 µg/mL (≈ 8.7 mM) | 2600 µg/mL (≈ 8.38 mM) | C[C@H]1CN(C(=O)CC#N)[C@]12CCN(c1ncnc3[nH]ccc13)C2 [Form α, 3-((3S,4R)-3-methyl-6-(7H-pyrrolo[2,3-d]pyrimidin-4-yl)-1,6-diazaspiro[3.4]octan-1-γ 1)-3-oxopropanenitrile]
